Assay results taken from patent US4698352A, “4-oxo-1,4-dihydronicotinic acid derivatives, salts thereof, and antibacterial agents containing the same” (Toyama Chemical Co., Ltd., priority 1982, dated 1987).
In brackets after ≈: the same amount, converted by molar mass. Like-named read-outs stand apart in the source and are kept apart here.

What was measured:
Test in all cases: Antibacterial activity (MIC), agar dilution
Format in all cases: cell-based
[1] = tested on: Ps. aeruginosa S-68; conditions: Pseudomonas aeruginosa
From the text: (§1) The amount of bacteria inoculated was 10^4 cells per plate (10^6 cells per ml).

[2] = tested on: Kl. pneumoniae Y-50; conditions: Klebsiella pneumoniae, Y50, 20 h, 10^6 cells per ml, 37° C., read-out: MIC
From the text: as §1

[3] = tested on: St. aureus FDA209P; conditions: Staphylococcus aureus, FDA209P, 20 h, St. aureus FDA209P; 10^6 cells per ml; 37° C., 20 hours; read-out: MIC
From the text: as §1

[4] = tested on: Pro. vulgaris GN3027; conditions: Proteus vulgaris, GN3027, 20 h, Pro. vulgaris GN3027; 10^6 cells per ml; 37° C., 20 hours; read-out: MIC
From the text: as §1

[5] = tested on: Kl. pneumoniae Y-41; conditions: Klebsiella pneumoniae, Y41, 10^6 cells per ml, 37° C., 20 hours, read-out: MIC
From the text: as §1

[6] = tested on: Aci. antitratus A-6; conditions: 20 h, Aci. antitratus A-6; 10^6 cells per ml; 37° C., 20 hours; read-out: MIC
From the text: as §1

[7] = tested on: E. coli NIHJ JC-2; conditions: Escherichia coli, NIHJJC2, 20 h
From the text: as §1

[8] = tested on: Pro. morganii T-216; conditions: Morganella morganii, 37° C.
From the text: as §1

[9] = tested on: Ent. cloacae IID977; conditions: Enterobacter cloacae, IID977, 20 h
From the text: as §1

[10] = tested on: E. coli TK-111; conditions: Escherichia coli, TK111, 20 h
From the text: as §1

[11] = tested on: Ps. aeruginosa IFO3445; conditions: Pseudomonas aeruginosa
From the text: as §1

[12] = tested on: Pro. mirabilis T-111; conditions: Proteus mirabilis, 37° C.
From the text: as §1

[13] = tested on: St. aureus F-137*; conditions: Staphylococcus aureus, 20 h, St. aureus F-137, penicillinase-producing; 10^6 cells per ml; read-out: MIC
From the text: as §1
(§2) * Penicillinase-producing bacteria

[14] = tested on: Ps. aeruginosa GN3379*; conditions: Pseudomonas aeruginosa, Ps. aeruginosa GN3379, penicillinase-producing, 10^6 cells per ml
From the text: as §1, §2

[15] = tested on: Kl. pneumoniae Y-4*; conditions: Klebsiella pneumoniae, 20 h, Kl. pneumoniae Y-4, penicillinase-producing; 10^6 cells per ml; read-out: MIC
From the text: as §1, §2

[16] = tested on: E. coli TK-3*; conditions: Escherichia coli, 20 h
From the text: as §1, §2

[17] = tested on: Ps. aeruginosa GN918**; conditions: Pseudomonas aeruginosa, 20 h; Ps. aeruginosa GN918, cephalospolinase-producing; 10^6 cells per ml; read-out: MIC
From the text: as §1
(§3) ** Cephalospolinase-producing bacteria

[18] = tested on: Pro. vulgaris GN76**; conditions: Proteus vulgaris
From the text: as §1, §3

[19] = tested on: E. coli GN5482**; conditions: Escherichia coli, 20 h; E. coli GN5482, cephalospolinase-producing; 10^6 cells per ml; read-out: MIC
From the text: as §1, §3

[20] = E. coli NIHJ JC-2, 10^6 cells per ml, 37° C., 20 hours, read-out: MIC
[21] = T216, 10^6 cells per ml, 20 hours, read-out: MIC
[22] = Ent. cloacae IID977, 10^6 cells per ml, 37° C., 20 hours, read-out: MIC
[23] = E. coli TK-111, 10^6 cells per ml, 37° C., 20 hours, read-out: MIC
[24] = T111, 10^6 cells per ml, 20 hours, read-out: MIC
[25] = E. coli TK-3, penicillinase-producing, 10^6 cells per ml, read-out: MIC
[26] = 20 h, Pro. vulgaris GN76, cephalospolinase-producing, 10^6 cells per ml, read-out: MIC
[27] = S68, Ps. aeruginosa S-68, 10^6 cells per ml, 37° C., 20 hours, read-out: MIC
[28] = Ps. aeruginosa IFO3445, 10^6 cells per ml, 37° C., 20 hours, read-out: MIC

| Compound | MIC [2] [µg/mL] | MIC [3] [µg/mL] | MIC [4] [µg/mL] | MIC [5] [µg/mL] | MIC [6] [µg/mL] | MIC [7, 20] [µg/mL] | MIC [8, 21] [µg/mL] | MIC [9, 22] [µg/mL] | MIC [10, 23] [µg/mL] | MIC ([11]; IFO3445, 20 h) [µg/mL] | MIC [12, 24] [µg/mL] | MIC [13] [µg/mL] | MIC [15] [µg/mL] | MIC [16, 25] [µg/mL] | MIC [17] [µg/mL] | MIC [18, 26] [µg/mL] | MIC [19] [µg/mL] | MIC [1, 27] [µg/mL] | MIC ([14]; 20 h, read-out: MIC) [µg/mL] | MIC [11, 28] [µg/mL] | other results |
| --- | --- | --- | --- | --- | --- | --- | --- | --- | --- | --- | --- | --- | --- | --- | --- | --- | --- | --- | --- | --- | --- |
| O=C(O)c1cn(-c2ccc(O)cc2F)c(-c2cc3ccccc3s2)cc1=O | 0.2 (≈ 0.524 µM) | ≤ 0.05 | ≤ 0.05 | 1.56 (≈ 4.09 µM) | 0.1 (≈ 0.262 µM) | 0.2 (≈ 0.524 µM) | 0.78 (≈ 2.05 µM) | 0.39 (≈ 1.02 µM) | ≤ 0.05 | 1.56 (≈ 4.09 µM) | 0.78 (≈ 2.05 µM) | ≤ 0.05 | 1.56 (≈ 4.09 µM) | 0.39 (≈ 1.02 µM) | 3.13 (≈ 8.21 µM) | 0.2 (≈ 0.524 µM) | ≤ 0.05 |  |  |  | MIC ([1]; S68, 20 h): 1.56 µg/mL (≈ 4.09 µM); MIC ([14]; GN3379, 20 h): 1.56 µg/mL (≈ 4.09 µM) |
| CC(=O)Oc1ccc(-n2cc(C(=O)O)c(=O)cc2-c2cc3ccccc3s2)c(F)c1 | 0.39 (≈ 0.921 µM) | 0.1 (≈ 0.236 µM) | 0.1 (≈ 0.236 µM) | 3.13 (≈ 7.39 µM) | 0.2 (≈ 0.472 µM) | 0.39 (≈ 0.921 µM) | 1.56 (≈ 3.68 µM) | 0.78 (≈ 1.84 µM) | ≤ 0.05 | 3.13 (≈ 7.39 µM) | 1.56 (≈ 3.68 µM) | ≤ 0.05 | 3.13 (≈ 7.39 µM) | 0.39 (≈ 0.921 µM) | 6.25 (≈ 14.8 µM) | 0.39 (≈ 0.921 µM) | ≤ 0.05 | 1.56 (≈ 3.68 µM) |  |  | MIC ([14]; GN3379, 20 h): 3.13 µg/mL (≈ 7.39 µM) |
| O=C(O)c1cn(-c2ccc(O)cc2)c(-c2ccc(-c3cccs3)cc2)cc1=O | 0.2 (≈ 0.514 µM) | ≤ 0.05 | ≤ 0.05 | 1.56 (≈ 4.01 µM) | 0.1 (≈ 0.257 µM) | 0.1 (≈ 0.257 µM) | 0.39 (≈ 1 µM) | 0.39 (≈ 1 µM) | ≤ 0.05 | 1.56 (≈ 4.01 µM) | 0.39 (≈ 1 µM) | ≤ 0.05 | 0.78 (≈ 2 µM) | 0.39 (≈ 1 µM) | 6.25 (≈ 16 µM) | 0.2 (≈ 0.514 µM) | ≤ 0.05 | 3.13 (≈ 8.04 µM) | 3.13 (≈ 8.04 µM) |  |  |
| O=C(O)c1cn(-c2ccc(O)cc2)c(-c2cc3ccccc3s2)cc1=O | 0.2 (≈ 0.55 µM) | ≤ 0.05 | ≤ 0.05 | 0.78 (≈ 2.15 µM) | 0.2 (≈ 0.55 µM) | 0.2 (≈ 0.55 µM) | 0.39 (≈ 1.07 µM) | 0.39 (≈ 1.07 µM) | ≤ 0.05 |  | 0.78 (≈ 2.15 µM) | ≤ 0.05 | 0.78 (≈ 2.15 µM) | 0.39 (≈ 1.07 µM) | 3.13 (≈ 8.61 µM) | 0.2 (≈ 0.55 µM) | ≤ 0.05 | 0.78 (≈ 2.15 µM) | 3.13 (≈ 8.61 µM) | 3.13 (≈ 8.61 µM) |  |
| CN(C)c1ccc(-c2cc(=O)c(C(=O)O)cn2-c2ccc(F)cc2O)cc1 | 1.56 (≈ 4.23 µM) | 0.2 (≈ 0.543 µM) | 0.39 (≈ 1.06 µM) | 6.25 (≈ 17 µM) | 0.78 (≈ 2.12 µM) | 0.78 (≈ 2.12 µM) | 3.13 (≈ 8.5 µM) |  |  |  |  | 0.2 (≈ 0.543 µM) | 6.25 (≈ 17 µM) |  | 50 (≈ 136 µM) |  | ≤ 0.05 | 12.5 (≈ 33.9 µM) | 25 (≈ 67.9 µM) | 12.5 (≈ 33.9 µM) | MIC [9]: 1.56 µg/mL (≈ 4.23 µM); MIC [10]: 1.56 µg/mL (≈ 4.23 µM); MIC ([12]; T111, 20 h, 10^6 cells per ml): 6.25 µg/mL (≈ 17 µM); MIC [16]: 1.56 µg/mL (≈ 4.23 µM); MIC ([18]; GN76, 20 h): 1.56 µg/mL (≈ 4.23 µM) |
| O=C(O)c1cn(-c2ccc(F)cc2)c(-c2sccc2-c2ccc([N+](=O)[O-])cc2)cc1=O | 1.56 (≈ 3.57 µM) | 0.28 (≈ 0.642 µM) | 0.39 (≈ 0.894 µM) | 6.25 (≈ 14.3 µM) | 0.78 (≈ 1.79 µM) |  |  | 3.13 (≈ 7.17 µM) | 0.2 (≈ 0.458 µM) |  |  | 0.1 (≈ 0.229 µM) | 6.25 (≈ 14.3 µM) | 3.13 (≈ 7.17 µM) | 12.5 (≈ 28.6 µM) | 3.13 (≈ 7.17 µM) | 0.2 (≈ 0.458 µM) | 12.5 (≈ 28.6 µM) | 25 (≈ 57.3 µM) | 12.5 (≈ 28.6 µM) | MIC [7]: 1.56 µg/mL (≈ 3.57 µM); MIC ([8]; T216, 20 h, 10^6 cells per ml): 1.56 µg/mL (≈ 3.57 µM); MIC ([12]; T111, 20 h, 10^6 cells per ml): 6.25 µg/mL (≈ 14.3 µM) |
